Calls of active or inactive are those of the source. No rule for the calls is given here.
Target: Sphingosine 1-phosphate receptor 1 (Homo sapiens) (UniProt P21453)
Experiment: PubChem AID 2351
Settings: S1P1-expressing cells, fluorescence antagonist assay

Chain of Sphingosine 1-phosphate receptor 1 (Homo sapiens) (P21453 whole entry, looked up): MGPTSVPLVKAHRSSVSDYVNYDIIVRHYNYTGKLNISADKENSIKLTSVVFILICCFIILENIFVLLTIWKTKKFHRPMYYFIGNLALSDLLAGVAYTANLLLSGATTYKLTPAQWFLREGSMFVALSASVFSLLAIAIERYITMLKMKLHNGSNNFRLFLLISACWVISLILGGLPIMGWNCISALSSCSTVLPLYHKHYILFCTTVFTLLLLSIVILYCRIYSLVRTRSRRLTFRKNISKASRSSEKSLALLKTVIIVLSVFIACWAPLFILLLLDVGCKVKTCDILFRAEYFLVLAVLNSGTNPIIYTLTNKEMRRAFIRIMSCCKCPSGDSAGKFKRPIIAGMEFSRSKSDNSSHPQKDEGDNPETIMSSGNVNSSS

IC50: > 25 µM (inactive)
Compound: Cc1cccc(C)c1NC(=O)c1ccc(-c2cc(Cl)ccc2Cl)o1

— PubChem BioAssay AID2351 (The Scripps Research Institute Molecular Screening Center, 2010)
